The target of the assay is NLRP3 (Homo sapiens, UniProt Q96P20). Put plainly: THP-1 cells pyroptosis assay. Format: cell-based. More on the design: Seed THP-1 cells (25,000 cells/well) containing 1.0 μg/ml LPS; host or cells: THP-1. The conditions noted are these: LPS 1.0 μg/ml, nigericin 5 μM, resazurin readout, 10 μM top dose (Example 2: top dose of 30 μM). On the procedure:
THP-1 cells (ATCC #TIB-202) were grown in RPMI containing L-glutamine (Gibco #11835) supplemented with imM sodium pyruvate (Sigma #S8636) and penicillin (100 units/ml)/streptomycin (0.1 mg/ml) (Sigma #P4333) in 10% Fetal Bovine Serum (FBS) (Sigma #F0804). The cells were routinely passaged and grown to confluency (˜10^6 cells/ml). On the day of the experiment, THP-1 cells were harvested and resuspended into RPMI medium (without FBS). The cells were then counted and viability (>90%) checked by Trypan blue (Sigma #T8154). Appropriate dilutions were made to give a concentration of 625,000 cells/ml. To this diluted cell solution was added LPS (Sigma #L4524) to give a 1 μg/ml Final Assay Concentration (FAC). 40 μl of the final preparation was aliquoted into each well of a 96-well plate. The plate thus prepared was used for compound screening.
The following method step-by-step assay was followed for compound screening. • 1. Seed THP-1 cells (25,000 cells/well) containing 1.0 μg/ml LPS in 40 μl of RPMI medium (without FBS) in 96-well, black walled, clear bottom cell culture plates coated with poly-D-lysine (VWR #734-0317) • 2. Add 5 μl compound (8 points four-fold dilution or 8 points half-log dilution, with 10 μM top dose, unless stated otherwise) or vehicle (DMSO 0.1% FAC) to the appropriate wells • 3. Incubate for 3 hrs at 37° C. and 5% CO2 • 4. Add 5 μl nigericin (Sigma #N7143) (FAC 5 μM) to all wells • 5. Incubate for 1 hr at 37° C. and 5% CO2 • 6. At the end of the incubation period, spin plates at 300×g for 3 mins and remove supernatant • 7. Then add 50 μl of resazurin (Sigma #R^7017) (FAC 100 μM resazurin in RPMI medium without FBS) and incubate plates for a further 1-2 hrs at 37° C. and 5% CO2 • 8. Plates were read in an Envision reader at Ex 560 nm and Em 590 nm • 9. IC50 data is fitted to a non-linear regression equation (log inhibitor vs response-variable slope 4-parameters)
(In general: Resazurin is reduced to fluorescent resorufin, in cell work by metabolically active cells.)

A value given as a limit tells only on which side of the number the result lay.

Chain of NLRP3 (Q96P20 whole entry): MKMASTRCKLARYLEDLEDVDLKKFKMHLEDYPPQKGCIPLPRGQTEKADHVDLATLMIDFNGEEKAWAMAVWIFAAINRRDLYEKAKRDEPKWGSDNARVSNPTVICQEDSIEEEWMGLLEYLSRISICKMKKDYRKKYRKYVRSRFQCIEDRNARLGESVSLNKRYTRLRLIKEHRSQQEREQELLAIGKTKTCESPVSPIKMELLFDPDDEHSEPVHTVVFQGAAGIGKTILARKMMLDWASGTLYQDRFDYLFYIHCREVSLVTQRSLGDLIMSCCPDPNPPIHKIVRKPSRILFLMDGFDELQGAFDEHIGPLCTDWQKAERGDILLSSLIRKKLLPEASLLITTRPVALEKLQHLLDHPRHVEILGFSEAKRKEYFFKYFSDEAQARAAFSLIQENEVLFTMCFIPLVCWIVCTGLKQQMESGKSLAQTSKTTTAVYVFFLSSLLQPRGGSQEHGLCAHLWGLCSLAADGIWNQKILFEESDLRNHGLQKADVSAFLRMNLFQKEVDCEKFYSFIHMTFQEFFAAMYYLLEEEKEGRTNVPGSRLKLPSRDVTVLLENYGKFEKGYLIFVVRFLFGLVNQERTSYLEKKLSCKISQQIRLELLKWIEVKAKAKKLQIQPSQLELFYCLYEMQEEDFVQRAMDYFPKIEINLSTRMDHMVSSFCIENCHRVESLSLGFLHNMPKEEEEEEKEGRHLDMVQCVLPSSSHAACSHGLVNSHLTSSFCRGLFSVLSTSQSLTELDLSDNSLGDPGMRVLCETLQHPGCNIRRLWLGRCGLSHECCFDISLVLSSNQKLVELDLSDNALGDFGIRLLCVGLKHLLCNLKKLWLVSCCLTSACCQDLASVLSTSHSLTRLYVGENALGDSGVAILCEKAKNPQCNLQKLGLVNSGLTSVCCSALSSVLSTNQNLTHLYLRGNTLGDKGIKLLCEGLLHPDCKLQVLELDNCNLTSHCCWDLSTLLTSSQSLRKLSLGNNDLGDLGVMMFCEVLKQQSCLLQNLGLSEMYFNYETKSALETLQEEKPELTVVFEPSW

Usually IC50 stands for the concentration that inhibits the measured activity by half. The low end stands for greater potency, the high end for weaker potency. On to `N#Cc1ccc(S(=O)(=O)c2nnc(Nc3c4c(cc5c3CCC5)CCC4)[nH]2)cc1` [Example 184, 4-((5-((1,2,3,5,6,7-hexahydro-s-indacen-4-yl)amino)-4H-1,2,4-triazol-3-yl)sulfonyl)benzonitrile], for which the IC50 was ≤ 5 µM.
On to `CN1CCC2CN(S(=O)(=O)c3nnc(Nc4c5c(cc6c4CCC6)CCC5)[nH]3)CC21` (stereo not drawn) [Example 101, N-(1,2,3,5,6,7-hexahydro-s-indacen-4-yl)-5-((1-methylhexahydropyrrolo[3,4-b]pyrrol-5 (1H)-yl)sulfonyl)-4H-1,2,4-triazol-3-amine], for which the IC50 was ≤ 5 µM.
With `O=S(=O)(CCCN1CCOCC1)c1nnc(Nc2c3c(cc4c2CCC4)CCC3)[nH]1` [Example 50, N-(1,2,3,5,6,7-hexahydro-s-indacen-4-yl)-5-((3-morpholinopropyl)sulfonyl)-4H-1,2,4-triazol-3-amine] the figure was ≤ 5 µM; with `Cc1ccc(S(=O)(=O)c2nnc(Nc3c4c(cc5c3CCC5)CCC4)[nH]2)cc1` [Example 182, N-(1,2,3,5,6,7-hexahydro-s-indacen-4-yl)-5-tosyl-4H-1,2,4-triazol-3-amine], ≤ 5 µM; with `O=S(=O)(Nc1ccccc1)c1nnc(Nc2c3c(cc4c2CCC4)CCC3)[nH]1` [Example 85, 5-((1,2,3,5,6,7-hexahydro-s-indacen-4-yl)amino)-N-phenyl-4H-1,2,4-triazole-3-sulfonamide], ≤ 10 µM.
For the molecule `CC(C)c1cc(F)cc(C(C)C)c1Nc1nnc(S(=O)(=O)c2ccccc2)[nH]1` [Example 42, N-(4-fluoro-2,6-diisopropylphenyl)-3-(phenylsulfonyl)-1H-1,2,4-triazol-5-amine], the IC50 was ≤ 10 µM.
Regarding `O=S(=O)(c1cccc(F)c1)c1nnc(Nc2c3c(cc4c2CCC4)CCC3)[nH]1` [Example 178, 5-((3-fluorophenyl)sulfonyl)-N-(1,2,3,5,6,7-hexahydro-s-indacen-4-yl)-4H-1,2,4-triazol-3-amine], the IC50 is ≤ 5 µM.
Consider `COC1(c2cc(S(=O)(=O)c3nnc(Nc4c5c(cc6c4CCC6)CCC5)[nH]3)nn2C(C)C)COC1` [Example 14, N-(1,2,3,5,6,7-hexahydro-s-indacen-4-yl)-5-((1-isopropyl-5-(3-methoxyoxetan-3-yl)-1H-pyrazol-3-yl)sulfonyl)-4H-1,2,4-triazol-3-amine], for which the IC50 is ≤ 5 µM.
Take `CS(=O)(=O)c1nnc(Nc2c(-c3ccnc(Oc4ccccc4)c3)ccc3c2CCC3)[nH]1` [Example 340, 5-(methylsulfonyl)-N-(5-(2-phenoxypyridin-4-yl)-2,3-dihydro-1H-inden-4-yl)-4H-1,2,4-triazol-3-amine]: the IC50 is ≤ 5 µM.
Next, `CN(C)CCN(C)CCCS(=O)(=O)c1nnc(Nc2c3c(cc4c2CCC4)CCC3)[nH]1` [Example 52, N^1-(3-((5-((1,2,3,5,6,7-hexahydro-s-indacen-4-yl)amino)-4H-1,2,4-triazol-3-yl)sulfonyl)propyl)-N^1,N^2,N^2-trimethylethane-1,2-diamine]: ≤ 5 µM.
With `COCCCS(=O)(=O)c1nnc(Nc2c3c(cc4c2CCC4)CCC3)[nH]1` [Example 65, N-(1,2,3,5,6,7-hexahydro-s-indacen-4-yl)-3-((3-methoxypropyl)sulfonyl)-1H-1,2,4-triazol-5-amine] the figure was ≤ 10 µM; with `CC(=O)NCCNS(=O)(=O)c1nnc(Nc2c3c(cc4c2CCC4)CCC3)[nH]1` [Example 115, N-(2-(5-((1,2,3,5,6,7-hexahydro-s-indacen-4-yl)amino)-4H-1,2,4-triazole-3-sulfonamido)ethyl)acetamide], ≤ 5 µM.
For `COC1(c2cc(S(=O)(=O)c3nnc(Nc4c5c(cc6c4CCC6)CCC5)[nH]3)nn2C2CC2)COC1` [Example 16, 5-((1-cyclopropyl-5-(3-methoxyoxetan-3-yl)-1H-pyrazol-3-yl)sulfonyl)-N-(1,2,3,5,6,7-hexahydro-s-indacen-4-yl)-4H-1,2,4-triazol-3-amine], the concentration for half-maximal inhibition (IC50) was ≤ 5 µM.
With `CC(O)Cn1cc(S(=O)(=O)c2nnc(Nc3c4c(cc5c3CCC5)CCC4)[nH]2)cn1` (stereo not drawn) [Example 353, 1-(4-((5-((1,2,3,5,6,7-hexahydro-s-indacen-4-yl)amino)-4H-1,2,4-triazol-3-yl)sulfonyl)-1H-pyrazol-1-yl)propan-2-ol] the figure was ≤ 5 µM; with `O=S(=O)(Cc1ccncc1)c1nnc(Nc2c3c(cc4c2CCC4)CCC3)[nH]1` [Example 72, N-(1,2,3,5,6,7-hexahydro-s-indacen-4-yl)-3-((pyridin-4-ylmethyl)sulfonyl)-1H-1,2,4-triazol-5-amine], ≤ 10 µM.
`CN(C)C1CCN(S(=O)(=O)c2nnc(Nc3c(C4CCOCC4)ccc4c3CCC4)[nH]2)CC1` [Example 209, N,N-dimethyl-1-((5-((5-(tetrahydro-2H-pyran-4-yl)-2,3-dihydro-1H-inden-4-yl)amino)-4H-1,2,4-triazol-3-yl)sulfonyl)piperidin-4-amine]: the IC50 is ≤ 10 µM.
Consider `O=S(=O)(c1nnc(Nc2c3c(cc4c2CCC4)CCC3)[nH]1)N1CCC(N2CCOCC2)C1` (stereo not drawn) [Example 127, N-(1,2,3,5,6,7-hexahydro-s-indacen-4-yl)-5-((3-morpholinopyrrolidin-1-yl)sulfonyl)-4H-1,2,4-triazol-3-amine], for which the IC50 was ≤ 5 µM.
On to `CN1Cc2ccc(S(=O)(=O)c3n[nH]c(Nc4c5c(cc6c4CCC6)CCC5)n3)cc2C1=O` [Example 180, 6-((5-((1,2,3,5,6,7-hexahydro-s-indacen-4-yl)amino)-1H-1,2,4-triazol-3-yl)sulfonyl)-2-methylisoindolin-1-one], for which the IC50 was ≤ 5 µM.
On to `CN1CCC[C@H](NS(=O)(=O)c2nnc(Nc3c4c(cc5c3CCC5)CCC4)[nH]2)C1` [Example 105, (S)-5-((1,2,3,5,6,7-hexahydro-s-indacen-4-yl)amino)-N-(1-methylpiperidin-3-yl)-4H-1,2,4-triazole-3-sulfonamide], for which the IC50 is ≤ 5 µM.
Take `O=S(=O)(CC1CNCCO1)c1nnc(Nc2c3c(cc4c2CCC4)CCC3)[nH]1` (stereo not drawn) [Example 57, N-(1,2,3,5,6,7-hexahydro-s-indacen-4-yl)-3-((morpholin-2-ylmethyl)sulfonyl)-1H-1,2,4-triazol-5-amine]: the IC50 was ≤ 10 µM.
As for `O=S(=O)(c1cnn(C2CC2)c1)c1nnc(Nc2c3c(cc4c2CCC4)CCC3)[nH]1` [Example 193, 3-((1-cyclopropyl-H-pyrazol-4-yl)sulfonyl)-N-(1,2,3,5,6,7-hexahydro-s-indacen-4-yl)-1H-1,2,4-triazol-5-amine], the IC50 was ≤ 5 µM.
On to `C[C@@H](CN(C)C)NS(=O)(=O)c1nnc(Nc2c3c(cc4c2CCC4)CCC3)[nH]1` [Example 106, (S)—N-(1-(dimethylamino)propan-2-yl)-5-((1,2,3,5,6,7-hexahydro-s-indacen-4-yl)amino)-4H-1,2,4-triazole-3-sulfonamide], for which the IC50 is ≤ 10 µM.
On to `O=S(=O)(c1nnc(Nc2c3c(cc4c2CCC4)CCC3)[nH]1)N1CCC2(COC2)C1` [Example 333, 5-(2-oxa-6-azaspiro[3.4]octan-6-ylsulfonyl)-N-(1,2,3,5,6,7-hexahydro-s-indacen-4-yl)-4H-1,2,4-triazol-3-amine], for which the IC50 was ≤ 5 µM.
On to `CN(C)CCn1cc(S(=O)(=O)c2nnc(Nc3c4c(cc5c3CCC5)CCC4)[nH]2)cn1` [Example 350, 5-((1-(2-(dimethylamino)ethyl)-1H-pyrazol-4-yl)sulfonyl)-N-(1,2,3,5,6,7-hexahydro-s-indacen-4-yl)-4H-1,2,4-triazol-3-amine], for which the IC50 is ≤ 1 µM.

The values are drawn from patent publication US20210261512A1, “NOVEL COMPOUNDS” (INFLAZOME LIMITED, priority 2018, published 2021).
